Data on 6 compounds can be found in US10975093B2, “Fused 1,4-diazepines as BET protein degraders” (THE REGENTS OF THE UNIVERSITY OF MICHIGAN, priority 2016, dated 2021).

The test system of test [1] is MOLM-13. The test is described as follows: Cell growth inhibition, CellTiter-Glo Luminescent Cell Viability Assay, MOLM-13. Format: cell-based. Conditions: Homo sapiens, MOLM-13, 96 h, MOLM-13 cells, 4 days incubation. As for the experimental part: (§1) Cell growth inhibitory activity of representative Compounds of the Disclosure was determined in various cell lines using CellTiter-Glo® Luminescent Cell Viability Assay. Cells were seeded in 384-well white opaque cell culture plates at a density of 2,000 cells/well with serially diluted compounds and incubated at 37° C. in an atmosphere of 95% air and 5% CO2 for 4 days. Cell viability was determined using the CellTiter-Glo® Luminescent Cell Viability Assay Kit (Promega, Madison, Wis.) according to the manufacture's instruction. Briefly, a volume of CellTiter-Glo® Reagent equal to the volume of cell culture medium was added to each well, and then the plates were incubated at room temperature for 10-20 minutes. The luminescent signal was measured using a Tecan Infinite M1000 multimode microplate reader (Tecan, Morrisville, N.C.). The half maximal inhibitory concentration (IC50) was calculated using the GraphPad Prism 5 software (GraphPad Software, La Jolla, Calif.).
(Cellular ATP, detected with luciferase, serves as a proxy for viable cell number.)

Test [2] deals with MDA-MB-231. The test is described as follows: Cell growth inhibition, CellTiter-Glo Luminescent Cell Viability Assay, MDA-MB-231. The conditions noted are these: Homo sapiens, MDA-MB-231, 96 h, MDA-MB-231 cells, 4 days incubation. The format is cell-based. The procedure:
as §1

Take `Cc1c(C#Cc2cnn(CCN3CCN(c4cccc5c4C(=O)N(C4CCC(=O)NC4=O)C5=O)CC3)c2)sc2c1C(c1ccc(Cl)cc1)=N[C@@H](C)c1nnc(C)n1-2` (stereo partly drawn) [compound 183, 4-(4-(2-(4-(((S)-4-(4-chlorophenyl)-3,6,9-trimethyl-6H-thieno[3,2-f][1,2,4]triazolo[4,3-a][1,4]diazepin-2-yl)ethynyl)-1H-pyrazol-1-yl)ethyl)piperazin-1-yl)-2-(2,6-dioxopiperidin-3-yl)isoindoline-1,3-dione]: the IC50 (as a rule, the concentration that inhibits the measured activity by half) was found to be 0.8 nM in test [1] and 0.3 nM in test [2].
Turning to `Cc1c(C#Cc2cnn(CCCCNc3ccc4c(c3)CN(C3CCC(=O)NC3=O)C4=O)c2)sc2c1C(c1ccc(Cl)cc1)=N[C@@H](C)c1nnc(C)n1-2` (stereo partly drawn) [compound 184, 3-(5-((4-(4-(((S)-4-(4-chlorophenyl)-3,6,9-trimethyl-6H-thieno[3,2-f][1,2,4]triazolo[4,3-a][1,4]diazepin-2-yl)ethynyl)-1H-pyrazol-1-yl)butyl)amino)-1-oxoisoindolin-2-yl)piperidine-2,6-dione], the IC50 in test [1] worked out at 0.5 nM; in test [2] it was 0.1 nM.
Turning to `Cc1c(C#Cc2cnn(CCCNc3ccc4c(c3)CN(C3CCC(=O)NC3=O)C4=O)c2)sc2c1C(c1ccc(Cl)cc1)=N[C@@H](C)c1nnc(C)n1-2` (stereo partly drawn) [compound 185, 3-(5-((3-(4-(((S)-4-(4-chlorophenyl)-3,6,9-trimethyl-6H-thieno[3,2-f][1,2,4]triazolo[4,3-a][1,4]diazepin-2-yl)ethynyl)-1H-pyrazol-1-yl)propyl)amino)-1-oxoisoindolin-2-yl)piperidine-2,6-dione], the IC50 was 0.2 nM in test [1] and 0.1 nM in test [2].
`Cc1c(C#Cc2cnn(CCCN3CCC(Nc4cccc5c4CN(C4CCC(=O)NC4=O)C5=O)CC3)c2)sc2c1C(c1ccc(Cl)cc1)=N[C@@H](CC(N)=O)c1nnc(C)n1-2` (stereo partly drawn) [compound 190, 2-((6S)-4-(4-chlorophenyl)-2-((1-(3-(4-((2-(2,6-dioxopiperidin-3-yl)-1-oxoisoindolin-4-yl)amino)piperidin-1-yl)propyl)-1H-pyrazol-4-yl)ethynyl)-3,9-dimethyl-6H-thieno[3,2-f][1,2,4]triazolo[4,3-a][1,4]diazepin-6-yl)acetamide]: the half-inhibitory concentration (IC50) is 0.05 nM in test [1] and 0.1 nM in test [2].
On the same counts, the results for `CCNC(=O)C[C@@H]1N=C(c2ccc(Cl)cc2)c2c(sc(C#Cc3cnn(CCCN4CCC(Nc5cccc6c5CN(C5CCC(=O)NC5=O)C6=O)CC4)c3)c2C)-n2c(C)nnc21` (stereo partly drawn) [compound 191, 2-((6S)-4-(4-chlorophenyl)-2-((1-(3-(4-((2-(2,6-dioxopiperidin-3-yl)-1-oxoisoindolin-4-yl)amino)piperidin-1-yl)propyl)-1H-pyrazol-4-yl)ethynyl)-3,9-dimthyl-6H-thieno[3,2-f][1,2,4]triazolo[4,3-a][1,4]diazepin-6-yl)-N-ethylacetamide] are 0.04 nM and 0.2 nM.
For `Cc1c(C#Cc2cnn(CCCN3CCC(Nc4cccc5c4CN(C4CCC(=O)NC4=O)C5=O)CC3)c2)sc2c1C(c1ccc(Cl)cc1)=N[C@@H](CC(=O)N1CCN(C)CC1)c1nnc(C)n1-2` (stereo partly drawn) [compound 192, 3-(4-((1-(3-(4-(((S)-4-(4-chlorophenyl)-3,9-dimethyl-6-(2-(4-methylpiperazin-1-yl)-2-oxoethyl)-6H-thieno[3,2-f][1,2,4]triazolo[4,3-a][1,4]diazepin-2-yl)ethynyl)-1H-pyrazol-1-yl)propyl)piperidin-4-yl)amino)-1-oxoisoindolin-2-yl)piperidine-2,6-dione], the IC50 in test [1] is 0.07 nM; in test [2], 0.08 nM.
